Measurements published in US20070021419A1, “2-Aminophenyl-4-phenylpyrimidines as kinase inhibitors” (Cyclacel Limited, priority 2003, published 2007).

Columns and labels:
[1] = system: A549; assay: 72-h MTT cytotoxicity assay, A549; assay type: cell-based; conditions: Homo sapiens, read-out: 72-h MTT IC50 A549, A549 cell line
In short: (§1)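 Seeding by doubling time, overnight 37° C; compounds, 1/3 serial dilution, triplicate, 72 h at 37° C; PBS wash; MTT (5 mg/mL stock) 4 h dark, 37° C; DMSO solubilisation.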

[2] = system: HT29; assay: 72-h MTT cytotoxicity assay, HT29; assay type: cell-based; conditions: Homo sapiens, HT-29, read-out: 72-h MTT IC50 HT29, HT29 cell line
In short: as §1

[3] = molecular target: CDK2/cyclin E (Homo sapiens, UniProt P24941); assay: Kinase assay, radioactive phosphate incorporation, CDK2/cyclin E; assay type: biochemical; conditions: 100 μM ATP, 30° C.; read-out: Kinase inhibition IC50 CDK2/cyclin E
In short: (§2)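 Steps: enzyme (2-4 μg) plus substrate in pH 7.4 buffer with DTT and vanadate; start with 100 μM ATP/15 mM MgCl2 containing [γ-32P]-ATP; incubate at 30° C; stop on ice; filter, wash with 75 mM orthophosphoric acid; scintillation count. Compounds diluted from DMSO stocks into 10% DMSO buffer.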

[4] = molecular target: CDK9/cyclin T1 (Homo sapiens, UniProt P50750); assay: Kinase assay, radioactive phosphate incorporation, CDK9/cyclin T1; assay type: biochemical; conditions: 100 μM ATP, 30° C.; read-out: Kinase inhibition IC50 CDK9/cyclin T1
In short: as §2

[5] = molecular target: T1, Aurora-A (Homo sapiens, UniProt O14965); assay: Kinase assay, radioactive phosphate incorporation, Aurora-A; assay type: biochemical; conditions: 100 μM ATP, 30° C.; read-out: Kinase inhibition IC50 Aurora-A
T1 sequence (O14965 1-403): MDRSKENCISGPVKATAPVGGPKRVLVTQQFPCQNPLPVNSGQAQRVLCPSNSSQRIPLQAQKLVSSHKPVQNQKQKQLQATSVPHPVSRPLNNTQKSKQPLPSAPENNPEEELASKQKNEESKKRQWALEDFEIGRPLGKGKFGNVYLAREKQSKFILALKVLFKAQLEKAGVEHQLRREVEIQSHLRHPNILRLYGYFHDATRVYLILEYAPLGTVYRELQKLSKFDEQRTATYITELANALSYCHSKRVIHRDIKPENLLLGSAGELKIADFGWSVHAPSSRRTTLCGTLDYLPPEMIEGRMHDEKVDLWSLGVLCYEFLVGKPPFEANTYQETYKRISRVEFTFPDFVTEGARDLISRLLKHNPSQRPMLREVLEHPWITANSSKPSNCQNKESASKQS
Protocol: (§3) The compounds from the examples above were investigated for their ability to inhibit the enzymatic activity of various protein kinases. This was achieved by measurement of incorporation of radioactive phosphate from ATP into appropriate polypeptide substrates. Recombinant protein kinases and kinase complexes were produced or obtained commercially. Assays were performed using 96-well plates and appropriate assay buffers (typically 25 mM β-glycerophosphate, 20 mM MOPS, 5 MM EGTA, 1 mM DTT, 1 mM Na3VO3, pH 7.4), into which were added 2-4 μg of active enzyme with appropriate substrates. The reactions were initiated by addition of Mg/ATP mix (15 mM MgCl2+100 μM ATP with 30-50 kBq per well of [γ-^32P]-ATP) and mixtures incubated as required at 30° C. Reactions were stopped on ice, followed by filtration through p81 filterplates or GF/C filterplates (Whatman Polyfiltronics, Kent, UK). After washing 3 times with 75 mM aq orthophosphoric acid, plates were dried, scintillant added and incorporated radioactivity measured in a scintillation counter (TopCount, Packard Instruments, Pangbourne, Berks, UK). Compounds for kinase assay were made up as 10 mM stocks in DMSO and diluted into 10% DMSO in assay buffer.

[6] = molecular target: CDK4/cyclin D1 (Homo sapiens, UniProt P11802); assay: Kinase assay, radioactive phosphate incorporation, CDK4/cyclin D1; assay type: biochemical; conditions: 100 μM ATP, 30° C.; read-out: Kinase inhibition IC50 CDK4/cyclin D1
In short: as §2

[7] = system: Saos-2; assay: 72-h MTT cytotoxicity assay, Saos-2; assay type: cell-based; conditions: Homo sapiens, read-out: 72-h MTT IC50 Saos-2, Saos-2 cell line
In short: as §1

[8] = molecular target: CDK7/cyclin H (Homo sapiens, UniProt P50613); assay: Kinase assay, radioactive phosphate incorporation, CDK7/cyclin H; assay type: biochemical; conditions: 100 μM ATP, 30° C.; read-out: Kinase inhibition IC50 CDK7/cyclin H
In short: as §2

[9] = molecular target: GSK3β (Homo sapiens, UniProt P49841); assay: Kinase assay, radioactive phosphate incorporation, GSK3β; assay type: biochemical; conditions: 100 μM ATP, 30° C.; read-out: Kinase inhibition IC50 GSK3β
In short: as §2

[10] = system: transformed human cell lines (A549, HT29, Saos-2); assay: 72-h MTT cytotoxicity assay, average of cell lines; assay type: cell-based; conditions: read-out: 72-h MTT IC50 Average, average of A549, HT29, Saos-2
In short: as §1

[11] = molecular target: CDK2/cyclin A (Homo sapiens, UniProt P24941); assay: Kinase assay, radioactive phosphate incorporation, CDK2/cyclin A; assay type: biochemical; conditions: 100 μM ATP, 30° C.; read-out: Kinase inhibition IC50 CDK2/cyclin A
In short: as §2

[12] = molecular target: CDK1/cyclin B (Homo sapiens, UniProt P06493); assay: Kinase assay, radioactive phosphate incorporation, CDK1/cyclin B; assay type: biochemical; conditions: 100 μM ATP, 30° C.; read-out: Kinase inhibition IC50 CDK1/cyclin B
Protocol: as §3

Chain of GSK3β (P49841 whole entry, species assumed): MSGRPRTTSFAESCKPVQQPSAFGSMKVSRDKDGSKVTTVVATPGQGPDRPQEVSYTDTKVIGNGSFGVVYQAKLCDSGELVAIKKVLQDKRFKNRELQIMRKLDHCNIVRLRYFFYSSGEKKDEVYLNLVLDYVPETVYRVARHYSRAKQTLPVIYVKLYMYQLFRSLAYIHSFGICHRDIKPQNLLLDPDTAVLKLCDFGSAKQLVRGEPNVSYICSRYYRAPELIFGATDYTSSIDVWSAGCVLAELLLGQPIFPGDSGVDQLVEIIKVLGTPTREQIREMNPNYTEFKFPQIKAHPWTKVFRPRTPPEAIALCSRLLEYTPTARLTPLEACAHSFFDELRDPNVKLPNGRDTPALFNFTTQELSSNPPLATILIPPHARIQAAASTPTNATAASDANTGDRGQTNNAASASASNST
Chain of CDK4/cyclin D1 (P11802 whole entry, species assumed): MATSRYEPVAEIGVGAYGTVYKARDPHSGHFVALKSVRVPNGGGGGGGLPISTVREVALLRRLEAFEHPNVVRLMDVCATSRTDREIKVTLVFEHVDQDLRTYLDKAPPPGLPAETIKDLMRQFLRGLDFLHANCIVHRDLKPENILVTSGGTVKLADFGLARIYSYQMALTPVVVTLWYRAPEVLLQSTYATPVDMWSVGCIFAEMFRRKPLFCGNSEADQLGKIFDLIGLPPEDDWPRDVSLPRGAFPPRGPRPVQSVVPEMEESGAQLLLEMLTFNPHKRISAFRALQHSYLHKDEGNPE
Chain of CDK4/cyclin D1 (P24385 whole entry partner, species assumed): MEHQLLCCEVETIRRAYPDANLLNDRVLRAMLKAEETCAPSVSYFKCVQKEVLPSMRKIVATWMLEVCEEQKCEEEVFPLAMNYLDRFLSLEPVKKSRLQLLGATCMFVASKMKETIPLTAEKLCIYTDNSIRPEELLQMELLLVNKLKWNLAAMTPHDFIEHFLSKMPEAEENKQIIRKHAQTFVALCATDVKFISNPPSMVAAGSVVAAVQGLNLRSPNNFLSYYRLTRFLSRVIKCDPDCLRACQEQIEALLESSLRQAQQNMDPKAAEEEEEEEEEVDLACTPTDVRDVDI
Chain of CDK9/cyclin T1 (P50750 whole entry, species assumed): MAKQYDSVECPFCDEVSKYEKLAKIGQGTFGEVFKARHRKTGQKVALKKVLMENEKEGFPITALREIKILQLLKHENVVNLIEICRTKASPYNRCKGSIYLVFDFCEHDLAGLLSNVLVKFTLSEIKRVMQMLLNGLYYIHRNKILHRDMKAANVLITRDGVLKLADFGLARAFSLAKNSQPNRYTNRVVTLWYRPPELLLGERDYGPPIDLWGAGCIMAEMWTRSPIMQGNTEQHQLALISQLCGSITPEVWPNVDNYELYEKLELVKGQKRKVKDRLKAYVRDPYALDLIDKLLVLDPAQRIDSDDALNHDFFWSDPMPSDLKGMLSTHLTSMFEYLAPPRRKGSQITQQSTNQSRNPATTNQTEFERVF
Chain of CDK9/cyclin T1 (O60563 whole entry partner, species assumed): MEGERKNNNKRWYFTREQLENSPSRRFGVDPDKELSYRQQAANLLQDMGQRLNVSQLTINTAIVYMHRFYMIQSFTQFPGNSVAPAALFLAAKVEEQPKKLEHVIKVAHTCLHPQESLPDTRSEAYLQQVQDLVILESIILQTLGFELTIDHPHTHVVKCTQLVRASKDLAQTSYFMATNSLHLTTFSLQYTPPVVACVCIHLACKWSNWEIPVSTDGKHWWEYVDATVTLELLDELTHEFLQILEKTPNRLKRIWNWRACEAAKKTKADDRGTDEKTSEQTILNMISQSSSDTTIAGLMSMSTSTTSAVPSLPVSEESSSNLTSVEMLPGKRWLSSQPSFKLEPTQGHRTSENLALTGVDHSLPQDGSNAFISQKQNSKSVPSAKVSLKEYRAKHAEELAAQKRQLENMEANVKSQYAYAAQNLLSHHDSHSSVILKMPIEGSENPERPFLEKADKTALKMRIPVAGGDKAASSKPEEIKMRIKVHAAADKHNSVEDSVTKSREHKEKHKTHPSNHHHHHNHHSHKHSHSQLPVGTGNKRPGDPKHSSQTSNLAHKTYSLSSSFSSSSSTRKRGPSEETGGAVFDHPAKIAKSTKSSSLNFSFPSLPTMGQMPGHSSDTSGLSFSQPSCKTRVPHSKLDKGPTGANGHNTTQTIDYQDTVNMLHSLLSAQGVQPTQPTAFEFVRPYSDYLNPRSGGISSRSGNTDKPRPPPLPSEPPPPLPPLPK
Chain of CDK1/cyclin B (P06493 whole entry, species assumed): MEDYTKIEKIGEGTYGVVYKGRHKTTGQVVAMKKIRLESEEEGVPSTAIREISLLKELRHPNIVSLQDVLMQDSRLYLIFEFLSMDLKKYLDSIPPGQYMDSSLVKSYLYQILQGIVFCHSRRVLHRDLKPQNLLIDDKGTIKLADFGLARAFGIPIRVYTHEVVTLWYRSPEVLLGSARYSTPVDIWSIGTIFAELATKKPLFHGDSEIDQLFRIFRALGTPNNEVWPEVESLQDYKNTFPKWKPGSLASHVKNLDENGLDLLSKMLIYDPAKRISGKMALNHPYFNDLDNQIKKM
Chain of CDK1/cyclin B (P14635 whole entry partner, species assumed): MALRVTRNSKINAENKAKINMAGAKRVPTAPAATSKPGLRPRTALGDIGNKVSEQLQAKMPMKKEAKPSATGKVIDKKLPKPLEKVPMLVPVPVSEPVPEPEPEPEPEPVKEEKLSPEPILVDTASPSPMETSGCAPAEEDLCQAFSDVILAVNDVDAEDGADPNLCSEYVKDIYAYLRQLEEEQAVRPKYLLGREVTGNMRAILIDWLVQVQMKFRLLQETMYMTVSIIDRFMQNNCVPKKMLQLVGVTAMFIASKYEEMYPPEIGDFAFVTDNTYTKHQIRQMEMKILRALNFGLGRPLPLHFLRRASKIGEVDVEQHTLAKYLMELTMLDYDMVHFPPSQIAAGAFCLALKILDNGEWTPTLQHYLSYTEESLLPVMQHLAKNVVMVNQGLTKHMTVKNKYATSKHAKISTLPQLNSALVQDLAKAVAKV
Chain of CDK7/cyclin H (P50613 whole entry, species assumed): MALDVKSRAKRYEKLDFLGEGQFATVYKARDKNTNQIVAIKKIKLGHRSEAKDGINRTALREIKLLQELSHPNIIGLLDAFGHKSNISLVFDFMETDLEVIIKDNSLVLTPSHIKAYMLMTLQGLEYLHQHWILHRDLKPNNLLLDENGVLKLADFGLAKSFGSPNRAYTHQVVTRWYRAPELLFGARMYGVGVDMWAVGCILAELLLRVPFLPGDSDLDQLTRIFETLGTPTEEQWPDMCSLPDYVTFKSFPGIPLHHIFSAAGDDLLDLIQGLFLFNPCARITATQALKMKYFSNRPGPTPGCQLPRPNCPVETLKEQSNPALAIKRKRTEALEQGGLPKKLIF
Chain of CDK7/cyclin H (P51946 whole entry partner, species assumed): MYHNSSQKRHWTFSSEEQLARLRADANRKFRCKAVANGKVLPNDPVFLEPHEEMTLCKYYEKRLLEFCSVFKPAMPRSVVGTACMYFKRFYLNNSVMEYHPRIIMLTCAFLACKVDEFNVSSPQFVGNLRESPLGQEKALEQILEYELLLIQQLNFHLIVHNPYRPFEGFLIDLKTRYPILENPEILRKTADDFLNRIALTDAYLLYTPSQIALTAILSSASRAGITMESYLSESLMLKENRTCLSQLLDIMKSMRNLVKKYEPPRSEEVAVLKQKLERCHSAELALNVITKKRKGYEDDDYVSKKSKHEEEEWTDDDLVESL

SMILES	IC50 [3] [nM]	IC50 [4] [nM]	IC50 [5] [nM]	IC50 [6] [nM]	IC50 [8] [nM]	IC50 [9] [nM]	IC50 [11] [nM]	IC50 [12] [nM]	IC50 [1] [nM]	IC50 [2] [nM]	IC50 [7] [nM]	IC50 [10] [nM]
CCN(Cc1cccc(-c2ccnc(Nc3cccc([N+](=O)[O-])c3)n2)c1)C(C)C [Compound 46, (4-{3-[(Ethyl-isopropyl-amino)-methyl]-phenyl}-pyrimidin-2-yl)-(3-nitro-phenyl)-amine]	170	2	30	1400	130	100	480		960	530	1100	900 ± 300
N#Cc1cccc(-c2ccnc(Nc3ccc(O)cc3)n2)c1 [Compound 93, 3-[2-(4-Hydroxy-phenylamino)-pyrimidin-4-yl]-benzonitrile]			1000	2500				3100				
Oc1cccc(Nc2nccc(-c3cccc(C(F)(F)F)c3)n2)c1 [Compound 95, 3-[4-(3-trifluoromethyl-phenyl)-pyrimidin-2-ylamino]-phenol]		90	990									
Oc1ccc(Nc2nccc(-c3cccc(C(F)(F)F)c3)n2)cc1 [Compound 96, 4-[4-(3-trifluoromethyl-phenyl)-pyrimidin-2-ylamino]-phenol]		80	20									
O=[N+]([O-])c1cccc(Nc2nccc(-c3cccc(CN4CCCC(CCO)C4)c3)n2)c1 (stereo not shown) [Compound 100, 2-(1-{3-[2-(3-Nitro-phenylamino)-pyrimidin-4-yl]-benzyl}-piperidin-3-yl)-ethanol]	60	2		3400	70	20	580	1200	560	640	1300	800 ± 400
CS(=O)(=O)c1cccc(Nc2nccc(-c3cccc(Cn4cncn4)c3)n2)c1 [Compound 104, (3-Methanesulfonyl-phenyl)-[4-(3-[1,2,4]triazol-1-ylmethyl-phenyl)-pyrimidin-2-yl]-amine]		60	1500		6400	280						
CCOc1ccc(-c2ccnc(Nc3cccc(O)c3)n2)cc1 [Compound 109, 3-[4-(4-Ethoxy-phenyl)-pyrimidin-2-ylamino]-phenol]		140	700				2000					
O=[N+]([O-])c1cccc(Nc2nccc(-c3cccc(Cl)c3)n2)c1 [Compound 112, [4-(3-Chloro-phenyl)-pyrimidin-2-yl]-(3-nitro-phenyl)-amine]		70	2600			160						
OCc1cccc(-c2ccnc(Nc3cccc(O)c3)n2)c1 [Compound 115, 3-[4-(3-Hydroxymethyl-phenyl)-pyrimidin-2-ylamino]-phenol]		40	720		3100	70	2000					
OCc1cccc(-c2ccnc(Nc3cccc(F)c3)n2)c1 [Compound 116, {3-[2-(3-Fluoro-phenylamino)-pyrimidin-4-yl]-phenyl}-methanol]		50	630									
Oc1ccc(Nc2nccc(-c3cccc(O)c3)n2)cc1 [Compound 122, 3-[2-(4-Hydroxy-phenylamino)-pyrimidin-4-yl]-phenol]		190	6									
COc1ccc(Nc2nccc(-c3cccc(CO)c3)n2)cn1 [Compound 125, {3-[2-(6-Methoxy-pyridin-3-ylamino)-pyrimidin-4-yl]-phenyl}-methanol]		120	960		5900	40						
O=[N+]([O-])c1cccc(Nc2nccc(-c3ccc(CCn4cncn4)cc3)n2)c1 [Compound 126, (3-Nitro-phenyl)-{4-[4-(2-[1,2,4]triazol-1-yl-ethyl)-phenyl]-pyrimidin-2-yl}-amine]		90	340			10						
COc1ccc(Nc2nccc(-c3cccc(N(C)S(C)(=O)=O)c3)n2)cn1 [Compound 132, N-{3-[2-(6-Methoxy-pyridin-3-ylamino)-pyrimidin-4-yl]-phenyl}-N-methyl-methanesulfonamide]		60	390	2100	3900	170						

Further lines, with some results ahead:

IC50 [3] [nM]	IC50 [4] [nM]	IC50 [5] [nM]	IC50 [6] [nM]	IC50 [8] [nM]	IC50 [9] [nM]	IC50 [11] [nM]	IC50 [12] [nM]	SMILES	IC50 [1] [nM]	IC50 [2] [nM]	IC50 [7] [nM]	IC50 [10] [nM]
< 1	10		540	50	20	150	150	O=[N+]([O-])c1cccc(Nc2nccc(-c3cccc(CN4CCCCC4CO)c3)n2)c1 (stereo not shown) [Compound 79, (1-{3-[2-(3-Nitro-phenylamino)-pyrimidin-4-yl]-benzyl}-piperidin-2-yl)-methanol]	330	200	620	400 ± 200
810	130	2400		670	160			O=[N+]([O-])c1cccc(Nc2nccc(-c3cccc(CN4CCCC4CNc4ccccc4)c3)n2)c1 (stereo not shown) [Compound 86, (3-Nitro-phenyl)-{4-[3-(2-phenylaminomethyl-pyrrolidin-1-ylmethyl)-phenyl]-pyrimidin-2-yl}-amine]	49300	8900	55800	38000 ± 25400
	110	940	1400		80		2100	N#Cc1cccc(-c2ccnc(Nc3cccc(O)c3)n2)c1 [Compound 92, 3-[2-(3-Hydroxy-phenylamino)-pyrimidin-4-yl]-benzonitrile]				
		520						COc1ccc(-c2ccnc(Nc3ccc(N4CCOCC4)cc3)n2)cc1 [Compound 111, [4-(4-Methoxy-phenyl)-pyrimidin-2-yl]-(4-morpholin-4-yl-phenyl)-amine]				
	150	140						Oc1ccc(Nc2nccc(-c3cccc(F)c3)n2)cc1 [Compound 113, 4-[4-(3-Fluoro-phenyl)-pyrimidin-2-ylamino]-phenol]				
	120	160						Oc1cccc(Nc2nccc(-c3cc(F)ccc3F)n2)c1 [Compound 114, 3-[4-(2,5-Difluoro-phenyl)-pyrimidin-2-ylamino]-phenol]				
	20	1800						COc1cccc(-c2ccnc(Nc3cccc(F)c3)n2)c1 [Compound 118, (3-Fluoro-phenyl)-[4-(3-methoxy-phenyl)-pyrimidin-2-yl]-amine]				
	900	1100						O=[N+]([O-])c1cccc(Nc2nccc(-c3ccc(CN4CCCCC4CO)cc3)n2)c1 (stereo not shown) [Compound 127, (1-{4-[2-(3-Nitro-phenylamino)-pyrimidin-4-yl]-benzyl}-piperidin-2-yl)-methanol]				
